Results published in patent US20070191292A1, “Antimycotic rhamnolipid compositions and related methods of use” (priority 2006, published 2007).
Read-outs that look alike come from different tables or passages of the source. Bridge positions count the residues as written; N and C are the ends. Square brackets hold non-standard residues; d marks the D form. Peptide text beside a SMILES is read from it. * marks the point of attachment. Asp(3S-OH) = N[C@H](C(=O)O)[C@H](O)C(=O)O; Thr(4-Cl) = N[C@H](C(=O)O)[C@H](O)CCl; X1 = CCCCCCCCC[C@@H](O)CC(=O)*; dDab = NCC[C@@H](N)C(=O)O; Dab = NCC[C@H](N)C(=O)O; Dhb = C/C=C(\N)C(=O)O

Legend:
R.pilimanae = format: cell-based, Rhodotorula pilimanae
Method: (§1) Disk diffusion methods similar to those described by the NCCLS protocols for antifungal testing (Washington, G. L. W. a. J. A. 1995. Antibacterial Susceptibility Tests: Dilution and Disk Diffusion Methods, p. 1327-1341. in P. R. Murray (ed.), Manual of Clinical Microbiology, sixth ed.) were used. FIGS. 2(A) through 2(D) illustrate typically observed result assessments for antimicrobial combinations using the disk diffusion method.
(§2) Tested fungi, utilized in the examples that follow, were grown in RPMI Medium and adjusted to 5×10^4 CFU/ml, and transferred onto solid agar medium of the appropriate growth medium. The cultures were spread over the surface as a thin film. Four millimeter-diameter sterilized paper disks were deposited on the surface and syringomycin E and rhamnolipids were applied on disk 1 and disk 2, respectively (in approximately about 7 to about 10 μl aliquots). The distance between the disks was equal to the sum of radii of zones of inhibition of the drugs applied alone. The plates were incubated at approximately 35° C. for approximately 24-72 h.
(§3) SYRA was obtained by mixing SRE and rhamnolipids at different relative concentrations. SYRA was tested against a variety of yeasts and fungi and the zone of inhibition was measured as described with reference to Examples 2A and 2B.

W303C = experiment: Disk diffusion, zone of inhibition; format: cell-based, Saccharomyces cerevisiae
Method: as §1, §2

8A-1B = experiment: Disk diffusion, zone of inhibition; format: cell-based, Saccharomyces cerevisiae
Method: as §1, §2

[1] = tested on: Saccharomyces cerevisiae SRE resistant mutant strains Δsmr1,Δsyr2,Δipt1, Δelo2,Δelo3,Δfah1; experiment: Replica plate growth inhibition, sphingolipid and sterol biosynthetic mutants; format: cell-based; settings: parent strains 8A-1B, W303, BY4741
Excerpt: To investigate the mechanism of action of SYRA, Saccharomyces cerevisiae sphingolipid and sterol biosynthetic mutants were used. Saccharomyces cerevisiae parent strains 8A-1B, W303, BY4741 and SRE resistant mutant strains Δsmr1,Δsyr2,Δipt1, Δelo2,Δelo3,Δfah1 were utilized, as described previously (Stock, S. D., H. Hama, J. A. Radding, D. A. Young, and J. Y. Takemoto. 2000. Syringomycin E inhibition of Saccharomyces cerevisiae: requirement for biosynthesis of sphingolipids with very-long-chain fatty acids and mannose- and phosphoinositol-containing head groups. Antimicrob. Agents Chemother. 44:1174-80.). For growth inhibition, a replica plate method was used (Hama, J., D. A. Young, J. A. Radding, D. Ma, J. Tang, S. D. Stock, and J. Y. Takemoto. 2000. Requirement of sphingolipid alpha-hydroxylation for fungicidal action of syringomycin E. FEBS Lett. 478:26-8). Fresh cells were replica plated onto yeast extract-peptone-dextrose (YPD) agar containing different concentrations of SYRA. Growth with and without SYRA addition were compared to determine relative sensitivity.

Rhizopus stonifer = format: cell-based; settings: SRE alone (0.5 mg/ml solution, diluted)
Excerpt: (§4) The checkerboard method is used frequently to evaluate antimicrobial combinations in vitro (Lorian, V., M. D. 1996. Antibiotics in Laboratory Medicine, 4th ed.). The tests were easily performed at the laboratory level by using the microdilution method. The results obtained from this study provided a better understanding of the nature of the interaction between SRE and rhamnolipids.
(§5) The checkerboard method is described by Sabath et al. (Sabath, L. D. 1967. Synergy of antibacterial substances by apparently known mechanisms. Antimicrob. Agents Chemother. 7:210-7.) and Garrod et al. (Garrod L. P. and P. M. Waterworth. 1962. Methods of testing combined antibiotic bactericidal action and the significance of the results. J. Clin. Pathol. 15:328-38.). A 96-well plate was used to determine the fractional inhibitory concentrations (FICs). Serial twofold dilutions of SRE and rhamnolipids were prepared separately. Then 25 μl of different concentrations of syringomycin are added in a vertical orientation and the rhamnolipids were added in horizontal orientation. The final volume of the well contained 50 μl of the subject composition and 50 μl of the tested culture. The plate was incubated at 35° C. for 24-72 h. and the FICs were calculated using the equation: (A/MICa)+(B/MICb)=FICa+FICb=FIC index, where A and B are concentrations of SRE and rhamnolipids, MICa and MICb are the minimum inhibitory concentrations, and FICa and FICb are the fractional inhibitory concentrations of SRE and rhamnolipids, respectively.
(§6) SRE and Rh solutions were prepared, at the concentrations shown (mg/ml), then diluted and used to determine the minimum inhibitory concentration (MIC, μg/ml) of each, alone and in composition with the other (SYRA and SYRA2). […] Beneficial effects against the other organisms tested are evidenced by examination and analysis of the corresponding data.

Candida albicans = format: cell-based; settings: SRE alone (0.5 mg/ml solution, diluted)
Excerpt: as §4, §5, §6

Rhizoctonia solani = format: cell-based; settings: SRE alone (0.5 mg/ml solution, diluted)
Excerpt: as §4, §5, §6

Botrytis sp = format: cell-based; settings: SRE alone (0.5 mg/ml solution, diluted)
Excerpt: as §4, §5, §6

Penicillium sp1 = format: cell-based; settings: SRE alone (0.5 mg/ml solution, diluted)
Excerpt: as §4, §5, §6

Cladosporium sp = format: cell-based; settings: SRE alone (0.5 mg/ml solution, diluted)
Excerpt: as §4, §5, §6

Penicillium sp2 = format: cell-based; settings: SRE alone (0.5 mg/ml solution, diluted)
Excerpt: as §4, §5, §6

Rhodotorula pilimanae = format: cell-based; settings: SRE alone (0.5 mg/ml solution, diluted)
Excerpt: as §4, §5, §6

Fusarium oxysporum = format: cell-based; settings: SRE alone (0.5 mg/ml solution, diluted)
Excerpt: as §4, §5, §6

Aspergillus flavus = format: cell-based; settings: SRE alone (0.5 mg/ml solution, diluted)
Excerpt: as §4, §5, §6

BY4741 = format: cell-based, Saccharomyces cerevisiae
Method: as §1, §2, §3

[2] = tested on: a variety of yeast and fungi; experiment: Antifungal activities against a variety of yeast and fungi (Table 1); format: cell-based; settings: component alone; Tables 1 and 2
Excerpt: as §4
as §5, with “Then 25 μl of different concentrations of syringomycin are added in a vertical orientation and the rhamnolipids were added in horizontal orientation. The final volume of the well contained 50 μl of the subject composition and 50 μl of the tested culture.” left out, “respectively. […]” for “respectively.”

SMILES: C/C=C1\NC(=O)[C@H](Cc2ccccc2)NC(=O)[C@H](CCCNC(=N)N)NC(=O)[C@H](CCN)NC(=O)[C@@H](CCN)NC(=O)[C@@H](CO)NC(=O)[C@@H](NC(=O)C[C@H](O)CCCCCCCCC)COC(=O)[C@H]([C@H](O)CCl)NC(=O)[C@H]([C@H](O)C(=O)O)NC1=O [SRE, Syringomycin E] (X1-S[dS][dDab][Dab]RF[Dhb][Asp(3S-OH)][Thr(4-Cl)]; ester 1-C)
- Zone of Inhibition (R.pilimanae; SRE alone 2.4 mg/ml): 19.0 mm
- Zone of Inhibition (R.pilimanae; SRE alone 5.6 mg/ml): 21.5 mm
- Zone of Inhibition (R.pilimanae; SRE alone 10.3 mg/ml): 23.0 mm
- Zone of Inhibition (W303C; SRE alone 2.4 mg/ml): 26.0 mm
- Zone of Inhibition (W303C; SRE alone 5.6 mg/ml): 28.0 mm
- Zone of Inhibition (W303C; SRE alone 10.3 mg/ml): 29.0 mm
- Zone of Inhibition (8A-1B; SRE alone 2.4 mg/ml): 17.5 mm
- Zone of Inhibition (8A-1B; SRE alone 5.6 mg/ml): 19.0 mm
- Zone of Inhibition (8A-1B; SRE alone 10.3 mg/ml): 20.0 mm
- growth inhibitory activity in mutants compared to wild type [1]: less in the mutants as compared to the wild type
- MIC (Rhizopus stonifer): 7.8 µg/mL
- MIC (Candida albicans): 3.9 µg/mL
- MIC (Rhizoctonia solani): 3.9 µg/mL
- MIC (Botrytis sp): 3.9 µg/mL
- MIC (Penicillium sp1): 7.8 µg/mL
- MIC (Cladosporium sp): 3.9 µg/mL
- MIC (Penicillium sp2): 7.8 µg/mL
- MIC (Rhodotorula pilimanae): 3.9 µg/mL
- MIC (Fusarium oxysporum): 7.8 µg/mL
- MIC (Aspergillus flavus): 7.8 µg/mL
- Zone of Inhibition (BY4741; SRE alone 2.4 mg/ml): 19.0 mm
- Zone of Inhibition (BY4741; SRE alone 5.6 mg/ml): 21.0 mm
- Zone of Inhibition (BY4741; SRE alone 10.3 mg/ml): 23.0 mm
- antifungal activities, alone [2]: strong activity
